According to patent publication US10988523B2, “Modified lipidated Relaxin B chain peptides and their therapeutic use” (Sanofi, priority 2018, dated 2021):
Values after ≈ are worked out from the molar mass of the structure shown. Where two headings read alike, the source gives them in different places. *1 amine or outer side, *2 acyl side, *3 side chain or, on linkers, in order; H or OH if unused. Where a SMILES comes first, the peptide text is derived from it. Side-chain parts run from the residue outwards. [ ]: non-standard residue; d: D form. The star is where a group is joined. X7 = CCCCCCCCCCCCCCCCCC(=O)N[C@@H](CCC(=O)N[C@@H](CCC(=O)N[C@@H](CCC(=O)NCCCOCCOCCOCCCNC(=O)COCC(=O)NCCCOCCOCCOCCCNC(=O)COCC(=O)*)C(=O)O)C(=O)O)C(=O)O; γGlu = O=C(O)[C@H](CCC(=O)[*:2])N[*:1]; Palmitoyl = CCCCCCCCCCCCCCCC(=O)*; Nle = CCCC[C@H](N)C(=O)O; AEEA = NCCOCCOCC(=O)O; Aib = CC(C)(N)C(=O)O

Key:
RXFP1 = biological target: T1, RXFP1 (Homo sapiens, UniProt Q9HBX9); assay: OVCAR5 cAMP assay (HTRF), RXFP1 agonist activity; type: cell-based; details: OVCAR-5; maximal cAMP relative to H2-relaxin maximum (100%); read-out: EMax, OVCAR 5 cells (cAMP)
T1 construct: OVCAR5 cells expressing endogenous RXFP1; endogenous in cells; host or cells: OVCAR5 cells
T1 sequence (Q9HBX9 1-757): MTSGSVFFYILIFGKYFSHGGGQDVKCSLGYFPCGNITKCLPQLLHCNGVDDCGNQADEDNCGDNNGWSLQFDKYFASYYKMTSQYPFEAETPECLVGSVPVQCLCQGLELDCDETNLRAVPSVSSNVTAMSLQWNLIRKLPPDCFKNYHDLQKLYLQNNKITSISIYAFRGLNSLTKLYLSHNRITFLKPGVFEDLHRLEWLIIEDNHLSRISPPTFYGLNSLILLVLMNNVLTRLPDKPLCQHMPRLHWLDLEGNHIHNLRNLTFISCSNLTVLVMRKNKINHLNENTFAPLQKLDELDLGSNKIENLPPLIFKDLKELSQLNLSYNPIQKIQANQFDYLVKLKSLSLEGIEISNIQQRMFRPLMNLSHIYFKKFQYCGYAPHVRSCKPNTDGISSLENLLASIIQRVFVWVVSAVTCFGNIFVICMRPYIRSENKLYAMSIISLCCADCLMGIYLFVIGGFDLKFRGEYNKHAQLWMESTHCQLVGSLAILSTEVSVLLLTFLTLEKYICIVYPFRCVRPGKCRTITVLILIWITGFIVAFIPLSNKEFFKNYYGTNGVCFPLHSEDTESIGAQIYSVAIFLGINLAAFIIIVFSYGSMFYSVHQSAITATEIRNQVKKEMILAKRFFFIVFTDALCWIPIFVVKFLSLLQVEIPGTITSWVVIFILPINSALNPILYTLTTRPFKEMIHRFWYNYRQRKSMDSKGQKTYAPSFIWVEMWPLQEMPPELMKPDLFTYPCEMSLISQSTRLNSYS
How it was run: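 cAMP accumulation readout: after 1 mM IBMX for 40 min, endogenous-RXFP1 OVCAR5 cells got rising peptide concentrations without FCS, 30 min, 37° C, then lysis with HTRF cAMP reagents. Nonlinear regression gave EC50; Emax expressed relative to H2-relaxin maximum, same occasion.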

[1] = Stability testing of peptides in human plasma or blood; type: in vitro ADME; details: 37° C.
Method: (§1) Prior to the testing of stability in plasma (or blood) of a peptide batch, its purity (HPLC-UV) was determined.
(§2) Rat and Human plasma: anti-coagulant sodium or lithium heparin.
(§3) Rat and Human blood: anti-coagulant sodium or lithium heparin. • Stock solution: • 100 μM solution of study compound in 50 mM Phosphate buffer pH 7.4. • 950 μL plasma (or blood) was pre-incubated for 5 min at 37° C. 50 μL of compound stock solution was added. Final compound concentration=5 μM. Vortex and transfer 1504, plasma (or blood) into an Eppendorf for each time point. The time points […] were carried out in duplicate for each species.
(§4) After incubation 150 μL, plasma (or blood) was extracted with 600 μL, Acetonitrile containing with 1% TFA. Then, vortexed and centrifuged 10 min at 14600 rpm. 200 μL supernatant was dried under N2. The sample was reconstituted in 200 μL of H2O/CH3CN 98/2+0.1% FA+50 ng/ml Labetalol and analyzed using the analytical system used in solubility and stability studies.
(§5) For determination of the amount of the remaining peptide, the peak areas of the target compound at t0 and each time point […] were compared, resulting in “% remaining peptide”, following the equation: % remaining peptide=[(peak area peptide time)×100]/peak area peptide t0. The stability is expressed as “% remaining peptide”.

[2] = Stability testing of peptides in rat plasma or blood; type: in vitro ADME; details: 37° C.
Method: as §1, §2, §3, §4, §5

[3] = Pharmacokinetic (PK) determination after i.v. or s.c. administration to rats; type: in vivo, Sprague Dawley rats; details: Sprague Dawley, Rat PK
How it was run: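 Non-compartmental analysis of plasma LC/MS data (protein precipitation, BLQ taken as zero) gave T½, C0 (i.v.), Cmax/Tmax (s.c.) and F% from dose-corrected AUCs. Dosing: 3 mg/kg s.c. or 1 mg/kg i.v. in PBS to Sprague Dawley rats, purity- and salt-corrected.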

[4] = Solubility testing of peptides in buffer; type: physicochemical
Method: Prior to the testing of solubility of a peptide batch, its purity (HPLC-UV) was determined.
Acetate Buffer 50 mM pH4.5: 0.75 g […], 3H2O (Sigma 57545)+0.35 ml CH3CO2H 100% solution dissolved in Millipore water, adjusted to pH with diluted (1:1) CH3CO2H and diluted to 250 ml with Millipore water.
In a 4 ml Ependorph vial, an accurately weighed sample of compound was diluted in study media to obtain target concentration of 2, 6 or 10 mg/ml of pure compound. The sample vials were shacked (rock 'roll shaker) for ˜19 h. 3004, Aliquots ( ) were filtered through a Millipore “Solvinert” plate (0.45 μm—PTFE hydrophilic).
pH was measured with a micro electrode
Waters Acquity UPLC System with DAD detector
Column: Waters Peptide Column CSH C18 (130 Å; 1.7 μm; 50*2.1 mm)
Column temperature: 60° C.
Full loop (about 5 μL)—overfill factor 5
Weak et Strong wash: H2O/ACN (75/25; V/V); Seal wash: H2O/IsOH (95/5; V/V). Mobile phase:
Solvent A: 0.05% TFA in H2O; Solvent B: 0.035% TFA in CH3CN
Gradient: from 0 to 12 min B=2% to 60%, from 12 to 14 min B=60% to 100%. Column washing 100% B 1 min, column equilibration 2% B 2.5 min.
UV detector: wavelength: 220 nm.

Emax (RXFP1)	Human Plasma stability % remaining T = 0 ([1]; human plasma or blood, T = 0 (reference), 5 μM)	remaining at 1 h, 5 µM ([1]; whole blood, human blood, 1 h, read-out: Human stability in blood % remaining 1 h)	remaining at 4 h, 5 µM ([1]; whole blood, human blood, 4 h, read-out: Human stability in blood % remaining 4 h)	Rat plasma stability % remaining T = 0 ([2]; rat plasma or blood, T = 0 (reference), 5 μM)	remaining at 1 h, 5 µM ([2]; whole blood, rat blood, 1 h, read-out: Rat stability in blood % remaining 1 h)	remaining at 4 h, 5 µM ([2]; whole blood, rat blood, 4 h, read-out: Rat stability in blood % remaining 4 h)	C0 ([3]; iv, 1 mg/kg i.v., extrapolated plasma concentration at t=0, read-out: C0)	half-life ([3]; plasma, iv, 1 mg/kg i.v., read-out: T½ (converted))	Cmax ([3]; plasma, sc, 3 mg/kg s.c.)	Tmax ([3]; plasma, sc, 3 mg/kg s.c.)	bioavailability ([3]; plasma, subcutaneous, 3 mg/kg s.c. vs 1 mg/kg i.v., dose-corrected AUC ratio)	solubility ([4]; acetate buffer, pH 4.5, read-out: Solubility Acetate buffer pH 4.5)	solubility ([4]; phosphate buffer, pH 7.4, read-out: Solubility phosphate buffer pH 7.4)	Structure (SMILES)
80%	100%	93%	87%	100%	95%	79%	6.02 µM	5.72 h	2.4 µM	10 h	47%			CCCCCCCCCCCCCCCC(=O)N[C@@H](CCC(=O)N[C@@H](CCC(=O)N[C@@H](CCC(=O)NCCOCCOCC(=O)NCCOCCOCC(=O)NCCOCCOCC(=O)NCCCC[C@H](NC(=O)[C@H](CCCCNC(C)=O)NC(=O)[C@H](CCCCN)NC(=O)[C@H](CCCNC(=N)N)NC(=O)C(C)(C)NC(=O)[C@H](CO)NC(=O)[C@H](Cc1c[nH]c2ccccc12)NC(=O)[C@@H](NC(=O)[C@H](CO)NC(=O)[C@H](CCCC)NC(=O)CNC(=O)[C@H](CCC(=O)O)NC(=O)C(C)(C)NC(=O)C(C)(C)NC(=O)[C@@H](NC(=O)[C@H](CCCCNC(C)=O)NC(=O)[C@H](C)NC(=O)[C@H](CCCNC(=N)N)NC(=O)[C@@H](NC(=O)[C@H](CCCCN)NC(=O)[C@H](CCC(=O)O)NC(=O)[C@H](CCCNC(=N)N)NC(=O)CNC(=O)[C@H](CCC(=O)O)NC(=O)[C@H](CC(C)C)NC(C)=O)C(C)C)[C@@H](C)CC)[C@@H](C)O)C(N)=O)C(=O)O)C(=O)O)C(=O)O [compound 63] (Ac-LEGREKVRAK(Ac)I[Aib][Aib]EG[Nle]STWS[Aib]RKK(Ac)K([AEEA-AEEA-AEEA-γGlu-γGlu-γGlu-Palmitoyl])-NH2)
87%												5600 µg/mL (≈ 1310 µM)	5600 µg/mL (≈ 1310 µM)	CCCCCCCCCCCCCCCCCC(=O)N[C@@H](CCC(=O)N[C@@H](CCC(=O)N[C@@H](CCC(=O)NCCCOCCOCCOCCCNC(=O)COCC(=O)NCCCOCCOCCOCCCNC(=O)COCC(=O)NCCCC[C@H](NC(=O)[C@H](CCCCNC(C)=O)NC(=O)[C@H](CCCCN)NC(=O)[C@H](CCCNC(=N)N)NC(=O)C(C)(C)NC(=O)[C@H](CO)NC(=O)[C@H](Cc1c[nH]c2ccccc12)NC(=O)[C@@H](NC(=O)[C@H](CO)NC(=O)[C@H](CCCC)NC(=O)CNC(=O)[C@H](CCC(=O)O)NC(=O)C(C)(C)NC(=O)C(C)(C)NC(=O)[C@@H](NC(=O)[C@H](CCCCNC(C)=O)NC(=O)[C@H](C)NC(=O)[C@H](CCCNC(=N)N)NC(=O)[C@@H](NC(=O)[C@H](CCCCN)NC(=O)[C@H](CCC(=O)O)NC(=O)[C@H](CCCNC(=N)N)NC(=O)CNC(=O)[C@H](CCC(=O)O)NC(=O)[C@H](CC(C)C)NC(C)=O)C(C)C)[C@@H](C)CC)[C@@H](C)O)C(N)=O)C(=O)O)C(=O)O)C(=O)O [compound 95] (Ac-LEGREKVRAK(Ac)I[Aib][Aib]EG[Nle]STWS[Aib]RKK(Ac)K(X7)-NH2)
